Tests used:
SU-DHL-1 = experiment: Cytotoxicity against human SU-DHL-1 cells measured after 8 days; format: functional, cell-based; details: SU-DHL-1, 192 h
HT = experiment: Cytotoxicity against human HT cells measured after 8 days; format: functional, cell-based; details: 192 h
[1] = biological target: T1, Muscarinic acetylcholine receptor M1 (Homo sapiens) (UniProt P11229); experiment: Displacement of [125I]pirenzepine from human recombinant M1 receptor at 10 uM after 60 mins by scintillation counting analysis relative to control
T1 sequence (whole entry): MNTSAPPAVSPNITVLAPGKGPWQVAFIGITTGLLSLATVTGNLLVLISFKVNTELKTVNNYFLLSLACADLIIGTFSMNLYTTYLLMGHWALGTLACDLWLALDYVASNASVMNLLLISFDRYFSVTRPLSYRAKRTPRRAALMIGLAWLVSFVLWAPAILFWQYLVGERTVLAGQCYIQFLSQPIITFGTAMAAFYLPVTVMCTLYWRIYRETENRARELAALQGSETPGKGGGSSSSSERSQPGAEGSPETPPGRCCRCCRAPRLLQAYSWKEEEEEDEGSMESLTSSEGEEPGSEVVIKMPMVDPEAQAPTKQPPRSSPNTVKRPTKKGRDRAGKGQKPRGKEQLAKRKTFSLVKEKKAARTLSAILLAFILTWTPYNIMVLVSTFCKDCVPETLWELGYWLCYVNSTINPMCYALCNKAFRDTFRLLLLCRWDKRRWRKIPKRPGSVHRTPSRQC

[2] = biological target: T2, Myotonin-protein kinase (Homo sapiens) (UniProt Q09013); experiment: Inhibition of DMPK (unknown origin) at 1 uM relative to control
T2 sequence (whole entry): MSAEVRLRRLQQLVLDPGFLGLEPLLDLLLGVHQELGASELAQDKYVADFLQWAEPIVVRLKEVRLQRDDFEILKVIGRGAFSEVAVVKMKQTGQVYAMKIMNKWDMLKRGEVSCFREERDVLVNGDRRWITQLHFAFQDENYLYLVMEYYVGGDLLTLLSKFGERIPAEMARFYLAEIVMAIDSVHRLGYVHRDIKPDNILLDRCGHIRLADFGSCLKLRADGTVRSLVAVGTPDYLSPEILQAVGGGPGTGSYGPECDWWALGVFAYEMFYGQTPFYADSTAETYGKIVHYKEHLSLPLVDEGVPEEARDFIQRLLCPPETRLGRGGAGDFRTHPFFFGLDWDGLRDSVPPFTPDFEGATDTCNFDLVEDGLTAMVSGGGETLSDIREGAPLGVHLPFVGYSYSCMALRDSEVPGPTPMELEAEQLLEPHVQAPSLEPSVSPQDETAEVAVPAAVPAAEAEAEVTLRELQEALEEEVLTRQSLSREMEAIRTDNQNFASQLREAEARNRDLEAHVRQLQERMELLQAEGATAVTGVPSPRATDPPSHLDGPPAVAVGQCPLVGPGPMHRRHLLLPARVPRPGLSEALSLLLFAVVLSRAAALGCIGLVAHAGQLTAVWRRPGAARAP

COLO 320 = experiment: Cytotoxicity against human COLO 320 cells measured after 8 days; format: functional, cell-based; details: COLO 320, 192 h
LS-1034 = experiment: Cytotoxicity against human LS1034 cells measured after 8 days; format: functional, cell-based; details: LS-1034, 192 h
MEL-HO = experiment: Cytotoxicity against human MEL-HO cells measured after 8 days; format: functional, cell-based; details: 192 h
LoVo = experiment: Cytotoxicity against human LoVo cells measured after 8 days; format: functional, cell-based; details: 192 h
NCI-H1299 = experiment: Cytotoxicity against human NCI-H1299 cells measured after 8 days; format: functional, cell-based; details: NCI-H1299, 192 h
LP-1 = experiment: Cytotoxicity against human LP-1 cells measured after 8 days; format: functional, cell-based; details: LP-1, 192 h
HCC78 = experiment: Cytotoxicity against human HCC78 cells measured after 8 days; format: functional, cell-based; details: HCC78, 192 h
AU565 = experiment: Cytotoxicity against human AU565 cells measured after 8 days; format: functional, cell-based; details: AU565, 192 h
[3] = biological target: Bromodomain adjacent to zinc finger domain protein 2A (Homo sapiens, UniProt Q9UIF9); experiment: Binding affinity to human partial length BAZ2A (M1792 to L1905 residues) expressed in bacterial expression system by BROMOscan assay
Chain of Bromodomain adjacent to zinc finger domain protein 2A (Q9UIF9 whole entry, the tested form may be a part): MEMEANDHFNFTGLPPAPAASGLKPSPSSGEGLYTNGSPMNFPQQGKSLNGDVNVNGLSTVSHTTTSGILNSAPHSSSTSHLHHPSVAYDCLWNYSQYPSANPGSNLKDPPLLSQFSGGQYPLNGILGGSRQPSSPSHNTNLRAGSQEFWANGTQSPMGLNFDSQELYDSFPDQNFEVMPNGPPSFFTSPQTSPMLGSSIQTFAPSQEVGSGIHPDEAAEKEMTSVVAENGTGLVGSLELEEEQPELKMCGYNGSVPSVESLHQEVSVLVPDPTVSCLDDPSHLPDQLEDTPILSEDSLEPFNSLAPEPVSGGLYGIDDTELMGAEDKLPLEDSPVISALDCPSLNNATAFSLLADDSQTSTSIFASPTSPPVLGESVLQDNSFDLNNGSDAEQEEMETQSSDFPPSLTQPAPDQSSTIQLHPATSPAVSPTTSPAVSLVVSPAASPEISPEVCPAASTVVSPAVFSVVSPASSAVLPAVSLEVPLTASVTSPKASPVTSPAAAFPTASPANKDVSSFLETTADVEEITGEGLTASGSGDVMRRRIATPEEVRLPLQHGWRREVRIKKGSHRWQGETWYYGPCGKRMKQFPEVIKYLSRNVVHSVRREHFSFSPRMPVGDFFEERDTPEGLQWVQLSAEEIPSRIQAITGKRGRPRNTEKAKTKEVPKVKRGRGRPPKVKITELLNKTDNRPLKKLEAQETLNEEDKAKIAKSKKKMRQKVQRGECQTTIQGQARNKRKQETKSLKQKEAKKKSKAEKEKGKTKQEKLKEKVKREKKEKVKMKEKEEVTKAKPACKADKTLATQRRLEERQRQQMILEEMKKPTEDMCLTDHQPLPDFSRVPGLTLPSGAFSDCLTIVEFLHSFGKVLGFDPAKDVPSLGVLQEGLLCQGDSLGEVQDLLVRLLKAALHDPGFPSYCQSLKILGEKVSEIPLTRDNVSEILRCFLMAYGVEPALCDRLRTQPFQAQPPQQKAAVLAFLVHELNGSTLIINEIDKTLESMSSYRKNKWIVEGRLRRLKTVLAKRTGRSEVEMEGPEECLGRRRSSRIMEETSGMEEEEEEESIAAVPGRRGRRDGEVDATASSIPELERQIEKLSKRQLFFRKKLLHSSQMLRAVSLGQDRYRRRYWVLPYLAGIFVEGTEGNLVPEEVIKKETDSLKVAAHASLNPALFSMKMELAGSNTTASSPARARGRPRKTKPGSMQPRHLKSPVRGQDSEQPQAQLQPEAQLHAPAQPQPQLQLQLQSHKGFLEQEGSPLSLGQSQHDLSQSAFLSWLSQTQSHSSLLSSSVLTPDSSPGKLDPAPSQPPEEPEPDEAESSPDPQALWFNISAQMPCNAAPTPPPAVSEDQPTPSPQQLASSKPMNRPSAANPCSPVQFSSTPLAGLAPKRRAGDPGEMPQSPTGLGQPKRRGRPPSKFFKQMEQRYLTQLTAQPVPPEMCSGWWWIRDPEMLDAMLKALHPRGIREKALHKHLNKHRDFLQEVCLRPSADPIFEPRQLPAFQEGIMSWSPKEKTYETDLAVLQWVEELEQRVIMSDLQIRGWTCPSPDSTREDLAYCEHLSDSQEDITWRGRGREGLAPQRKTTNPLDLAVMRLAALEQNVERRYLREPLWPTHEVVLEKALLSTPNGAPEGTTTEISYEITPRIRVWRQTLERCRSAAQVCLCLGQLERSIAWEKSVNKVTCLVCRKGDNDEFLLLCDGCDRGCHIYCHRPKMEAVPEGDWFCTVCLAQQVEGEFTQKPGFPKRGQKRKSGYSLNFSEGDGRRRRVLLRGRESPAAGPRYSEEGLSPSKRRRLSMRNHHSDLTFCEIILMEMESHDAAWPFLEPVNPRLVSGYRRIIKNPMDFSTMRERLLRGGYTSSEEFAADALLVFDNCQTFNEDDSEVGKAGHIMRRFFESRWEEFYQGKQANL

[4] = biological target: High affinity nerve growth factor receptor (Homo sapiens) (UniProt P04629); experiment: Inhibition of TrkA (unknown origin) at 1 uM relative to control
Chain of High affinity nerve growth factor receptor (Homo sapiens) (P04629 33-796 limits assumed): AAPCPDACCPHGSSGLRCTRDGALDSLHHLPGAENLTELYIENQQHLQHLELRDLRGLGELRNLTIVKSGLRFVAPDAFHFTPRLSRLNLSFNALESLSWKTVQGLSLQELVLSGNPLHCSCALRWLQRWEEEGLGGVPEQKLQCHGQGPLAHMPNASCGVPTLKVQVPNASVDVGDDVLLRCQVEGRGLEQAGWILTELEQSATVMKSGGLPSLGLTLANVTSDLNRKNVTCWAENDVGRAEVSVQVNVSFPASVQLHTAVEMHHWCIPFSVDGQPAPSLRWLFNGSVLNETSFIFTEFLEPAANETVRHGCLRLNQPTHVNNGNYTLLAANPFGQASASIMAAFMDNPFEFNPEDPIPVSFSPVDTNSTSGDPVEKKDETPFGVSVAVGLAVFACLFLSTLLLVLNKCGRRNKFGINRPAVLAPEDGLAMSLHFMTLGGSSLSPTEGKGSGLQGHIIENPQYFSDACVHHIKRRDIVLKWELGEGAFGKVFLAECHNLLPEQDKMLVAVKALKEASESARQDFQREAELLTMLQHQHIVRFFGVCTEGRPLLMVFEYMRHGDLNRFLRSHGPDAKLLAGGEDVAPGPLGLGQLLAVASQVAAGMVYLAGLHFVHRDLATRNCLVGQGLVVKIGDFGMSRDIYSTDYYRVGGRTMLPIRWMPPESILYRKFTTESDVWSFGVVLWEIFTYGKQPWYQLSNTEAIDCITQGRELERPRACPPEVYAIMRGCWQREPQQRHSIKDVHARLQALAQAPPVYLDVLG

LCLC-103H cell line = experiment: Cytotoxicity against human LCLC-103H cell line measured after 8 days; format: functional, cell-based; details: 192 h
[5] = Cytotoxicity against human NCI-H322T cells measured after 8 days; format: functional, cell-based; details: 192 h
DV-90 = experiment: Cytotoxicity against human DV-90 cells measured after 8 days; format: functional, cell-based; details: DV-90, 192 h
COLO-678 = experiment: Cytotoxicity against human COLO-678 cells measured after 8 days; format: functional, cell-based; details: COLO-678, 192 h
[6] = Cytotoxicity against human ATRFLOX cells measured after 8 days; format: functional, cell-based; details: 192 h
EVSA-T = experiment: Cytotoxicity against human EVSA-T cells measured after 8 days; format: functional, cell-based; details: 192 h
[7] = Cytotoxicity against human SNU-719 cells measured after 8 days; format: functional, cell-based; details: SNU-719, 192 h
NCI-H23 = experiment: Cytotoxicity against human NCI-H23 cells measured after 8 days; format: functional, cell-based; details: NCI-H23, 192 h
HDQ-P1 = experiment: Cytotoxicity against human HDQ-P1 cells measured after 8 days; format: functional, cell-based; details: HDQ-P1, 192 h
SCC-3 = experiment: Cytotoxicity against human SCC-3 cells measured after 8 days; format: functional, cell-based; details: SCC-3, 192 h
NCI-H226 = experiment: Cytotoxicity against human NCI-H226 cells measured after 8 days; format: functional, cell-based; details: NCI-H226, 192 h
[8] = biological target: Receptor-type tyrosine-protein kinase FLT3 (Homo sapiens) (UniProt P36888); experiment: Inhibition of Flt3 (unknown origin) at 1 uM relative to control
Chain of Receptor-type tyrosine-protein kinase FLT3 (Homo sapiens) (P36888 whole entry): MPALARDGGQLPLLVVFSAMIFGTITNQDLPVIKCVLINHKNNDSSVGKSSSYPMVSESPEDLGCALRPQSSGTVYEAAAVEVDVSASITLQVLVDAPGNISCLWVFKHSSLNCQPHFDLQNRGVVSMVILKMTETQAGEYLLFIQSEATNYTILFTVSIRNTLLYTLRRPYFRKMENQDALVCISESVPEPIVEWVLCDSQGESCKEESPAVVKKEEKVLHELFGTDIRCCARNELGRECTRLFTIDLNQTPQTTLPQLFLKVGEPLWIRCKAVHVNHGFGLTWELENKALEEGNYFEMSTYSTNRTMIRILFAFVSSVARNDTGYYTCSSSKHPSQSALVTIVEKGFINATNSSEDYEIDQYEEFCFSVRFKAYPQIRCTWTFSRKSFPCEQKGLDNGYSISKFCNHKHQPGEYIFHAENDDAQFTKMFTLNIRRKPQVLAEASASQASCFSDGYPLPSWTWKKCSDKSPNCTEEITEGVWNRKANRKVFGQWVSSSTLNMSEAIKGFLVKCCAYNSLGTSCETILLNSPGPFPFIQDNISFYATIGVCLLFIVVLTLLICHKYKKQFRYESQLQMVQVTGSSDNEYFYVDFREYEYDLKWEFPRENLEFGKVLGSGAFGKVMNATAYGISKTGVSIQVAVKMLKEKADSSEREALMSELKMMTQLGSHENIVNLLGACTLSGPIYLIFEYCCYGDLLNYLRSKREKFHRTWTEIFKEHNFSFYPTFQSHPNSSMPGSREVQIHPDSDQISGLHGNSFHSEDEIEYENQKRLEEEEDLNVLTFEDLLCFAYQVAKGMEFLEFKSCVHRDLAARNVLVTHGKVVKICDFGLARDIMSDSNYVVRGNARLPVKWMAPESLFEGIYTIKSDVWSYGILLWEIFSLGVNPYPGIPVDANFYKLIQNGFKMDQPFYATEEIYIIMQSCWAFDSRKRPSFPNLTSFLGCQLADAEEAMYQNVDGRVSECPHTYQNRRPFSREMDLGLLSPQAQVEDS

[9] = Cytotoxicity against human HMY-1 cells measured after 8 days; format: functional, cell-based; details: HMY-1, 192 h
RERF-LC-MS = experiment: Cytotoxicity against human RERF-LC-MS cells measured after 8 days; format: functional, cell-based; details: 192 h
[10] = biological target: Histamine H1 receptor (Homo sapiens) (UniProt P35367); experiment: Displacement of [3H]pyrilamine from human recombinant histamine H1 receptor at 10 uM after 60 mins by scintillation counting analysis relative to control
Chain of Histamine H1 receptor (Homo sapiens) (P35367 whole entry): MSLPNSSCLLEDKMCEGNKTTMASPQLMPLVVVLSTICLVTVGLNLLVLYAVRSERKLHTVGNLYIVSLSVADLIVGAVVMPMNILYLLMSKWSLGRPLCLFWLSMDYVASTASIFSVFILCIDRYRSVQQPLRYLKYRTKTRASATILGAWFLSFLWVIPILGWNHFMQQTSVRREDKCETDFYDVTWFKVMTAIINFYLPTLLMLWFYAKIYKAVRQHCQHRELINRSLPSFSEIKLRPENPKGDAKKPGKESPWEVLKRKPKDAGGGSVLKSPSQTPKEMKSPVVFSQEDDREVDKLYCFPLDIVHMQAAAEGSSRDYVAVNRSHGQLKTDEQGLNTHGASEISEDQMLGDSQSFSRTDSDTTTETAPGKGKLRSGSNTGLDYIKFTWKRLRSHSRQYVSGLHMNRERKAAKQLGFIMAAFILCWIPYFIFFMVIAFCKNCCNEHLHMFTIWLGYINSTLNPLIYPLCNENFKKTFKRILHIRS

Hs 294T = experiment: Cytotoxicity against human Hs294T cells measured after 8 days; format: functional, cell-based; details: 192 h
NUGC-4 = experiment: Cytotoxicity against human NUGC-4 cells measured after 8 days; format: functional, cell-based; details: NUGC-4, 192 h

In the case of `C/C=C/Cn1cc(-c2ccc(C(C)(C)O)cc2OC)c2cc[nH]c2c1=O`, the IC50 (SU-DHL-1) is reported as 20 µM, the IC50 (HT) is reported as 20 µM and the Activity [1] is reported as 1%. The inhibition [2] was 2.5%, the IC50 (COLO 320) was 20 µM and the IC50 (LS-1034) was 20 µM. The IC50 (MEL-HO) was 16.5 µM, the IC50 (LoVo) was 20 µM and the IC50 (NCI-H1299) was 20 µM. The IC50 (LP-1) was 19.5 µM, the IC50 (HCC78) was 20 µM and the IC50 (AU565) was 20 µM. It also gave a Kd [3] of over 10 µM, an inhibition [4] of 12.5% and an IC50 (LCLC-103H cell line) of 20 µM. The IC50 [5] was 20 µM, the IC50 (DV-90) was 20 µM and the IC50 (COLO-678) was 20 µM. It also gave an IC50 [6] of 20 µM, an IC50 (EVSA-T) of 20 µM and an IC50 [7] of 20 µM. It also gave an IC50 (NCI-H23) of 20 µM, an IC50 (HDQ-P1) of 20 µM and an IC50 (SCC-3) of 20 µM. The IC50 (NCI-H226) was 20 µM, the inhibition [8] was 15% and the IC50 [9] was 20 µM. The IC50 (RERF-LC-MS) was 20 µM, the Activity [10] was 1% and the IC50 (Hs 294T) was 20 µM. It also gave an IC50 (NUGC-4) of 20 µM.

For `C/C=C/Cn1cc(-c2ccc(C(=O)N3CCOCC3)cc2)c2cc[nH]c2c1=O`, the IC50 (SU-DHL-1) was 20 µM, the IC50 (HT) was 20 µM and the Activity [1] was -8%. The inhibition [2] was -2%, the IC50 (COLO 320) was 20 µM and the IC50 (LS-1034) was 20 µM. For the same compound, the IC50 (MEL-HO) was 20 µM, the IC50 (LoVo) was 20 µM and the IC50 (NCI-H1299) was 20 µM. It also gave an IC50 (LP-1) of 20 µM, an IC50 (HCC78) of 20 µM and an IC50 (AU565) of 20 µM. The Kd [3] was over 10 µM, the inhibition [4] was 21.4% and the IC50 (LCLC-103H cell line) was 20 µM. The IC50 [5] was 20 µM, the IC50 (DV-90) was 20 µM and the IC50 (COLO-678) was 20 µM. For the same compound, the IC50 [6] was 20 µM, the IC50 (EVSA-T) was 20 µM and the IC50 [7] was 20 µM. The IC50 (NCI-H23) was 20 µM, the IC50 (HDQ-P1) was 20 µM and the IC50 (SCC-3) was 20 µM. For the same compound, the IC50 (NCI-H226) was 20 µM, the inhibition [8] was 4.4% and the IC50 [9] was 20 µM. It also gave an IC50 (RERF-LC-MS) of 20 µM, an Activity [10] of 0% and an IC50 (Hs 294T) of 20 µM. For the same compound, the IC50 (NUGC-4) was 20 µM.

Work on `C/C=C/Cn1cc(-c2cc(OC)c(C(C)(C)O)cc2OC)c2cc(C)[nH]c2c1=O` yielded a Kd [3] of over 10 µM.

In the case of `C/C=C/Cn1cc(-c2cc(OC)c(C(=O)N3CCOCC3)cc2OC)c2cc(C)[nH]c2c1=O`, the IC50 (SU-DHL-1) is reported as 2 µM, the IC50 (HT) is reported as 2 µM and the Activity [1] is reported as -1%. The inhibition [2] was -4%, the IC50 (COLO 320) was 2 µM and the IC50 (LS-1034) was 2 µM. For the same compound, the IC50 (MEL-HO) was 2 µM, the IC50 (LoVo) was 2 µM and the IC50 (NCI-H1299) was 2 µM. For the same compound, the IC50 (LP-1) was 2 µM, the IC50 (HCC78) was 2 µM and the IC50 (AU565) was 2 µM. The Kd [3] was over 10 µM, the inhibition [4] was 12% and the IC50 (LCLC-103H cell line) was 2 µM. The IC50 [5] was 2 µM, the IC50 (DV-90) was 2 µM and the IC50 (COLO-678) was 2 µM. The IC50 [6] was 2 µM, the IC50 (EVSA-T) was 2 µM and the IC50 [7] was 2 µM. The IC50 (NCI-H23) was 2 µM, the IC50 (HDQ-P1) was 2 µM and the IC50 (SCC-3) was 2 µM. For the same compound, the IC50 (NCI-H226) was 2 µM, the inhibition [8] was 6% and the IC50 [9] was 2 µM. It also gave an IC50 (RERF-LC-MS) of 2 µM, an Activity [10] of 1% and an IC50 (Hs 294T) of 2 µM. It also gave an IC50 (NUGC-4) of 2 µM.

Source: ChEMBL document CHEMBL5260810, “Inhibition of bromodomain-containing protein 9 for the prevention of epigenetically-defined drug resistance” (Bioorg Med Chem Lett, 2017)
